Measured values published in ChEMBL document CHEMBL1146255, “Synthesis of bisdesmosidic kryptogenyl saponins using the 'random glycosylation' strategy and evaluation of their antitumor activity” (Bioorg Med Chem Lett, 2007).

Legend:
Conditions in all cases: Homo sapiens
HeLa [1] = assay: Antitumor activity against HeLa cells at 10 uM by MTT assay; type: functional
HeLa [2] = assay: Antitumor activity against HeLa cells at 1 uM by MTT assay; type: functional
HeLa [3] = assay: Antitumor activity against HeLa cells at 0.1 uM by MTT assay; type: functional
HeLa [4] = assay: Antitumor activity against HeLa cells at 10 nM by MTT assay; type: functional
HeLa [5] = assay: Antitumor activity against HeLa cells by MTT assay; type: functional, cell-based

Row | SMILES | IC50 (HeLa [5]) [µM] | inhibition at 10 µM (HeLa [1]) [%] | inhibition at 1 µM (HeLa [2]) [%] | inhibition at 0.1 µM (HeLa [3]) [%] | inhibition at 0.01 µM (HeLa [4]) [%]
1 | C[C@H](CCC(=O)[C@@H](C)[C@H]1C(=O)C[C@H]2[C@@H]3CC=C4C[C@@H](O[C@@H]5OC[C@@H](O)[C@H](O)[C@H]5O)CC[C@]4(C)[C@H]3CC[C@]12C)CO[C@@H]1O[C@H](CO)[C@@H](O)[C@H](O)[C@H]1O | > 10 | 30.9 | 23 | 19.3 | 17.5
2 | C[C@H](CCC(=O)[C@@H](C)[C@H]1C(=O)C[C@H]2[C@@H]3CC=C4C[C@@H](O[C@@H]5O[C@@H](C)[C@H](O)[C@@H](O)[C@H]5O)CC[C@]4(C)[C@H]3CC[C@]12C)CO[C@@H]1O[C@@H](C)[C@H](O)[C@@H](O)[C@H]1O | > 10 | 26.2 | 21.2 | 14.3 | 7.19
3 | C[C@H](CCC(=O)[C@@H](C)[C@H]1C(=O)C[C@H]2[C@@H]3CC=C4C[C@@H](O[C@@H]5OC[C@H](O)[C@H](O)[C@H]5O)CC[C@]4(C)[C@H]3CC[C@]12C)CO[C@@H]1O[C@@H](CO)[C@H](O)[C@@H](O)[C@@H]1O | > 10 | 9.71 | 4.79 | 3.84 | 3.25
4 | C[C@H](CCC(=O)[C@@H](C)[C@H]1C(=O)C[C@H]2[C@@H]3CC=C4C[C@@H](O[C@@H]5O[C@H](CO)[C@@H](O)[C@H](O)[C@H]5O)CC[C@]4(C)[C@H]3CC[C@]12C)CO[C@@H]1OC[C@H](O)[C@H](O)[C@H]1O | > 10 | 4.36 | 3.67 | 1.05 | 0.87
5 | C[C@H](CCC(=O)[C@@H](C)[C@H]1C(=O)C[C@H]2[C@@H]3CC=C4C[C@@H](O[C@@H]5O[C@H](CO)[C@@H](O)[C@H](O)[C@H]5O)CC[C@]4(C)[C@H]3CC[C@]12C)CO[C@@H]1O[C@H](CO)[C@@H](O)[C@H](O)[C@H]1O | > 10 | 3.46 | 2.31 | 1.78 | 0.46
6 | C[C@H](CCC(=O)[C@@H](C)[C@H]1C(=O)C[C@H]2[C@@H]3CC=C4C[C@@H](O[C@@H]5O[C@H](CO)[C@@H](O)[C@H](O)[C@H]5O)CC[C@]4(C)[C@H]3CC[C@]12C)CO[C@@H]1O[C@@H](C)[C@H](O)[C@@H](O)[C@H]1O | > 10 | 10.5 | 9.94 | 7.16 | 3.42
7 | C[C@H](CCC(=O)[C@@H](C)[C@H]1C(=O)C[C@H]2[C@@H]3CC=C4C[C@@H](O[C@@H]5O[C@@H](C)[C@H](O)[C@@H](O)[C@H]5O)CC[C@]4(C)[C@H]3CC[C@]12C)CO[C@@H]1O[C@H](CO)[C@@H](O)[C@H](O)[C@H]1O | > 10 | 15.1 | 1.67 | 1.66 | 0.16
8 | C[C@H](CCC(=O)[C@@H](C)[C@H]1C(=O)C[C@H]2[C@@H]3CC=C4C[C@@H](O[C@@H]5O[C@H](CO)[C@@H](O)[C@H](O)[C@H]5O)CC[C@]4(C)[C@H]3CC[C@]12C)CO[C@@H]1OC[C@@H](O)[C@H](O)[C@H]1O | > 10 | 24.8 | 14.5 | 12.8 | 7.95
9 | C[C@H](CCC(=O)[C@@H](C)[C@H]1C(=O)C[C@H]2[C@@H]3CC=C4C[C@@H](O[C@@H]5O[C@@H](C)[C@H](O)[C@@H](O)[C@H]5O)CC[C@]4(C)[C@H]3CC[C@]12C)CO[C@@H]1OC[C@@H](O)[C@H](O)[C@H]1O | > 10 | 28.5 | 20.7 | 20.1 | 13.6
10 | C[C@H](CCC(=O)[C@@H](C)[C@H]1C(=O)C[C@H]2[C@@H]3CC=C4C[C@@H](O[C@@H]5O[C@@H](C)[C@H](O)[C@@H](O)[C@H]5O)CC[C@]4(C)[C@H]3CC[C@]12C)CO[C@@H]1OC[C@H](O)[C@H](O)[C@H]1O | 8.36 | 60.1 | 6.34 | 6.93 | 1.35
11 | CC(=O)OC[C@H](C)CCC(=O)[C@@H](C)[C@H]1C(=O)C[C@H]2[C@@H]3CC=C4CC(OC(=O)c5ccccc5)CC[C@]4(C)[C@H]3CC[C@]12C (stereo not given in full) | > 10 | 18.5 | 11 | 12.1 | 8.33

The next lines start with results.

Row | IC50 (HeLa [5]) [µM] | SMILES | inhibition at 10 µM (HeLa [1]) [%] | inhibition at 1 µM (HeLa [2]) [%] | inhibition at 0.1 µM (HeLa [3]) [%] | inhibition at 0.01 µM (HeLa [4]) [%]
12 | > 10 | C[C@@H](CO)CCC(=O)[C@@H](C)[C@H]1C(=O)C[C@H]2[C@@H]3CC=C4C[C@@H](O)CC[C@]4(C)[C@H]3CC[C@]12C | 22.3 | 17.3 | 13.8 | 9.49
13 | 4.25 | C[C@H](CCC(=O)[C@@H](C)[C@H]1C(=O)C[C@H]2[C@@H]3CC=C4C[C@@H](O[C@@H]5OC[C@H](O)[C@H](O)[C@H]5O)CC[C@]4(C)[C@H]3CC[C@]12C)CO[C@@H]1OC[C@H](O)[C@H](O)[C@H]1O | 62 | 4.34 | 1.64 | 0.26
14 | > 10 | C[C@H](CCC(=O)[C@@H](C)[C@H]1C(=O)C[C@H]2[C@@H]3CC=C4C[C@@H](O[C@@H]5OC[C@@H](O)[C@H](O)[C@H]5O)CC[C@]4(C)[C@H]3CC[C@]12C)CO[C@@H]1OC[C@H](O)[C@H](O)[C@H]1O | 30.9 | 10.6 | 5.45 | 0.68
15 | > 10 | C[C@H](CCC(=O)[C@@H](C)[C@H]1C(=O)C[C@H]2[C@@H]3CC=C4C[C@@H](O[C@@H]5OC[C@H](O)[C@H](O)[C@H]5O)CC[C@]4(C)[C@H]3CC[C@]12C)CO[C@@H]1O[C@@H](C)[C@H](O)[C@@H](O)[C@H]1O | 10.3 | 9.25 | 7.51 | 6.36
16 | > 10 | C[C@H](CCC(=O)[C@@H](C)[C@H]1C(=O)C[C@H]2[C@@H]3CC=C4C[C@@H](O[C@@H]5OC[C@H](O)[C@H](O)[C@H]5O)CC[C@]4(C)[C@H]3CC[C@]12C)CO[C@@H]1OC[C@@H](O)[C@H](O)[C@H]1O | 11.8 | 2.84 | 1.79 | 0.98
17 | > 10 | C[C@H](CCC(=O)[C@@H](C)[C@H]1C(=O)C[C@H]2[C@@H]3CC=C4C[C@@H](O[C@@H]5OC[C@@H](O)[C@H](O)[C@H]5O)CC[C@]4(C)[C@H]3CC[C@]12C)CO[C@@H]1OC[C@@H](O)[C@H](O)[C@H]1O | 17.6 | 16.3 | 14.2 | 6
